From ChEMBL document CHEMBL1201862, “PubChem BioAssay data set” (2004)
Calls of active or inactive are those of the source.

Assays:
[1] = inhibition of ADAM10 peptide cleavage – biochemical, FRET peptide substrate, recombinant human ADAM10, selectivity assay for ADAM17 exosite inhibitor project, dose response (AID 743259);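 also: ADAM10 enzyme cleaving a FRET peptide substrate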
[2] = biological target: Disintegrin and metalloproteinase domain-containing protein 17 (Homo sapiens, UniProt P78536); assay: exosite inhibitors of ADAM17, dose response, biochemical (AID 743260)
Disintegrin and metalloproteinase domain-containing protein 17, sequence (P78536 whole entry, the tested form may be a part): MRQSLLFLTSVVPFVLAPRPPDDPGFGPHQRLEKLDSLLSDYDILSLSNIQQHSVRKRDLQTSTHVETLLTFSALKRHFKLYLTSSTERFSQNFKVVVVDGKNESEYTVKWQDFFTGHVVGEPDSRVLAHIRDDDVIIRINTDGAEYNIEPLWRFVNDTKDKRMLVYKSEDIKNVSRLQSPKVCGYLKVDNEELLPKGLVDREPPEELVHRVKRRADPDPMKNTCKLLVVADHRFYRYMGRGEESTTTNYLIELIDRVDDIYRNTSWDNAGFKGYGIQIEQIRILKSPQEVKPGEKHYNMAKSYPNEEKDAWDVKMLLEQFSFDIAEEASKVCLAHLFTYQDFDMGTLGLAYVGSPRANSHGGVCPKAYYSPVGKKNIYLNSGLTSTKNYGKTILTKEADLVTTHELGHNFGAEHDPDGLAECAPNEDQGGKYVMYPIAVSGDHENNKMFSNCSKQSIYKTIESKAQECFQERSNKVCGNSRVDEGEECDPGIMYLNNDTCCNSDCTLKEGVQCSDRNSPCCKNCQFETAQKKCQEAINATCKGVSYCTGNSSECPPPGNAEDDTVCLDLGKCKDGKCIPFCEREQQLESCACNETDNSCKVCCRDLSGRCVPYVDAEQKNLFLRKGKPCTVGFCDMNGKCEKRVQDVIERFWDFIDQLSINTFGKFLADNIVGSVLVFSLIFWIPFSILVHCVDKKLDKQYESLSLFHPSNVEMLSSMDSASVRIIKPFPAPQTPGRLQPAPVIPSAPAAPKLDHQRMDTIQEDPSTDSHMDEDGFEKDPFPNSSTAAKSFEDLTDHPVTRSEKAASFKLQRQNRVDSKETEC

[3] = biological target: Beta-lactamase (Salmonella choleraesuis (strain SC-B67), UniProt Q5J463)
Beta-lactamase (Salmonella choleraesuis (strain SC-B67), UniProt Q5J463), sequence (Q5J463 whole entry): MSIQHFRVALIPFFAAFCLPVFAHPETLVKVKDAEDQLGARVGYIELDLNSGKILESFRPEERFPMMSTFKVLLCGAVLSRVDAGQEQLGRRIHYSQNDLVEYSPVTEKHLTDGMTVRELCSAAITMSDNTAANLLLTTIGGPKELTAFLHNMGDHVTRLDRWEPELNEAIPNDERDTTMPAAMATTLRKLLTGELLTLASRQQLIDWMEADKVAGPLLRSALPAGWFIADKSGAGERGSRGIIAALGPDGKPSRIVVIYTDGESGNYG

[4] = biological target: Beta-lactamase (Pseudomonas aeruginosa, UniProt Q79MP6);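 also: biochemical dose-response test of metallo-beta-lactamase enzyme inhibition, read out by epi-absorbance; purified recombinant IMP-1 metallo-beta-lactamase with nitrocefin as substrate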
Beta-lactamase (Pseudomonas aeruginosa, UniProt Q79MP6), sequence (Q79MP6 whole entry, the tested form may be a part): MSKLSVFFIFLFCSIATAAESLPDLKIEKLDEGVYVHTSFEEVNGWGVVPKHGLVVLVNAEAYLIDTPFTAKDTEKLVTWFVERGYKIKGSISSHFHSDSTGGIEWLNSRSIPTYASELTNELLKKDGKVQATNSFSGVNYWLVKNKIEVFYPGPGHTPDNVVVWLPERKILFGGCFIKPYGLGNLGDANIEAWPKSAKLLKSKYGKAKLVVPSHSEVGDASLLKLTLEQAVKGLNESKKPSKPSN

[5] = biological target: Arf-GAP with SH3 domain, ANK repeat and PH domain-containing protein 1 (Homo sapiens, UniProt Q9ULH1); type: functional;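 also: biochemical fluorescence polarization dose–response screen measuring inhibition of ASAP1; ASAP1 GAP domain stimulating GTP hydrolysis by truncated human ARF1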
Arf-GAP with SH3 domain, ANK repeat and PH domain-containing protein 1, sequence (Q9ULH1 whole entry, the tested form may be a part): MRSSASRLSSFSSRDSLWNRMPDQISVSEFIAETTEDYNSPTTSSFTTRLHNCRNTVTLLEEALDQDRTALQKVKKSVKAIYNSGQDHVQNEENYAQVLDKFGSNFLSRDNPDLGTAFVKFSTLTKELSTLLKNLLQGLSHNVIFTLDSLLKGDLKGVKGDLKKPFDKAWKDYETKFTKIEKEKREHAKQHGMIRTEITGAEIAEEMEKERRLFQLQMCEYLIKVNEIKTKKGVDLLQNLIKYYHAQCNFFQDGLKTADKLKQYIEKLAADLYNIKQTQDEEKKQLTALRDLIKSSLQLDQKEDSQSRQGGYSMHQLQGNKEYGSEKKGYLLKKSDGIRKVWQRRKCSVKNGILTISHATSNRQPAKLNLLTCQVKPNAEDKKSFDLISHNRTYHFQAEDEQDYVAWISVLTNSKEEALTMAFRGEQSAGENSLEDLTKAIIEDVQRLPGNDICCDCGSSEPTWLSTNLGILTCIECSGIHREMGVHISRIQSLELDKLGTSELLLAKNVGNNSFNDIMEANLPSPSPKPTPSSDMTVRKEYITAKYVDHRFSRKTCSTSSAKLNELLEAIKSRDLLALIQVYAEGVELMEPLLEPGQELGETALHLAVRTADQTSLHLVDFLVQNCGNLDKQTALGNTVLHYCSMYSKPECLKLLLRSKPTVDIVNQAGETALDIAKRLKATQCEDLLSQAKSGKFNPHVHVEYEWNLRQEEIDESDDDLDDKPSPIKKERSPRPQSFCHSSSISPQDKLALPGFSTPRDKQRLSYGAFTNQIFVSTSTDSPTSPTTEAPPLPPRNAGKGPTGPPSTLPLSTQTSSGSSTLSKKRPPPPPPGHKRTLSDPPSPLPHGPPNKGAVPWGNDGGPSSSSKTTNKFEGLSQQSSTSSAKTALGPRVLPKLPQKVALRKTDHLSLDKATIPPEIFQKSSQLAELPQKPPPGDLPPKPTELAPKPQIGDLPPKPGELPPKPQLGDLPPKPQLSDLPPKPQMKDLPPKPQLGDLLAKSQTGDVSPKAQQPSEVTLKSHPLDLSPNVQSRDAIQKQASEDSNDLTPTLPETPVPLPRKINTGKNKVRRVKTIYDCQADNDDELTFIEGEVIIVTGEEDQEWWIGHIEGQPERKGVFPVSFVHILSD

[6] = tested on: HeLa; assay: viability loss in HeLa cells – cell-based, ATP luminescence, cherry-pick samples, cytotoxicity control, dose response (AID 687004); type: functional; settings: Homo sapiens
[7] = biological target: T1, Beta-2 adrenergic receptor (Homo sapiens, UniProt P07550); assay: ADRB2 activation measured by internalization – cell-based, FAP fluorogen, flow cytometry, cherry pick 1, dose response (AID 588763); type: functional
T1 sequence (P07550 whole entry): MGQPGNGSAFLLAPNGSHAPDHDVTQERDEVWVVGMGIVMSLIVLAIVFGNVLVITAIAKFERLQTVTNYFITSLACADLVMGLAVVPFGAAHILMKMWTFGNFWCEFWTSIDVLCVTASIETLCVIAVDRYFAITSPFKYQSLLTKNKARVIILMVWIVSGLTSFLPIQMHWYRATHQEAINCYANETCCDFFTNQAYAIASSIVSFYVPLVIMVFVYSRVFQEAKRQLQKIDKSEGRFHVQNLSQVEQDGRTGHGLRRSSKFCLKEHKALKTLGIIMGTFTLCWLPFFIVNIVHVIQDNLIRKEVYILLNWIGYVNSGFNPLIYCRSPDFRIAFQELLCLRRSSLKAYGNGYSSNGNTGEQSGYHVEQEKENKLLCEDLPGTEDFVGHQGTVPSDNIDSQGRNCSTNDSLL

[8] = biological target: Cytochrome P450 2C19 (Homo sapiens, UniProt P33261); assay: Cytochrome panel assay with activity outcomes. Panel member name: p450-cyp2c19 Compounds with AC50 equal or less than 10 uM are considered active; type: functional; settings: read-out: AC50
Cytochrome P450 2C19, sequence (P33261 whole entry): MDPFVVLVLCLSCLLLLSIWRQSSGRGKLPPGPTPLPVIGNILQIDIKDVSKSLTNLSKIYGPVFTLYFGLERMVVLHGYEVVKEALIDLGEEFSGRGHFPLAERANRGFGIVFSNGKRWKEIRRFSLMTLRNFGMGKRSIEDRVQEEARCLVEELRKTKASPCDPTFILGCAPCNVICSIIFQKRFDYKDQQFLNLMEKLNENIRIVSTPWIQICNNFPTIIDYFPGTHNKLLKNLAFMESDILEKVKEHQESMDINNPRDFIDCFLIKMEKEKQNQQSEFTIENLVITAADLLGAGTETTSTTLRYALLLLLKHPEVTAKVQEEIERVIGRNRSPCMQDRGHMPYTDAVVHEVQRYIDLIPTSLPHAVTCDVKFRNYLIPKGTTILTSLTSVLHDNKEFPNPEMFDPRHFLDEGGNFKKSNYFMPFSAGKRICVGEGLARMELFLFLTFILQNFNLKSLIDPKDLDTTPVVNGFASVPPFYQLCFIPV

[9] = biological target: Cytochrome P450 3A4 (Homo sapiens, UniProt P08684);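 also: CYP3A4 tested as one member of a cytochrome P450 panel screen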
Cytochrome P450 3A4, sequence (P08684 whole entry): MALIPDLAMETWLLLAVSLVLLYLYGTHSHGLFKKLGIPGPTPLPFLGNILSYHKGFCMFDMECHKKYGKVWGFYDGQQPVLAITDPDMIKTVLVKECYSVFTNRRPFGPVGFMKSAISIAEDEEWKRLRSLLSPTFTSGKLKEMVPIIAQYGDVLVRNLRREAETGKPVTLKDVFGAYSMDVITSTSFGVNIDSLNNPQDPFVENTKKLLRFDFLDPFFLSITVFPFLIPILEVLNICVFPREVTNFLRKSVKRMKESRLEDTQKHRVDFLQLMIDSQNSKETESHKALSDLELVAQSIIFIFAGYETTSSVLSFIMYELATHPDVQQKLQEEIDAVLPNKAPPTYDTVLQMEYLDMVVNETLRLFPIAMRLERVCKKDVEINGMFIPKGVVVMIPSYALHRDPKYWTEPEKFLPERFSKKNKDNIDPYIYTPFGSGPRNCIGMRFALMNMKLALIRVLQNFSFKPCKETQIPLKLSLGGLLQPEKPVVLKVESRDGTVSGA

[10] = biological target: T1, Beta-2 adrenergic receptor; assay: Dose response for HTS for Beta-2AR agonists via FAP method from Powderset3.; type: functional
[11] = optical artefact potency, substrate without enzyme – biochemical, fluorescence intensity, triplicate, artefact control for kallikrein-7 zymogen activator project, dose response (AID 720493)
[12] = biological target: Kallikrein-7 (Homo sapiens, UniProt P49862); assay: Fluorescence Intensity-based biochemical primary high throughput dose response assay to identify activators of kallikrein-7 (K7) zymogen.
Kallikrein-7, sequence (P49862 whole entry): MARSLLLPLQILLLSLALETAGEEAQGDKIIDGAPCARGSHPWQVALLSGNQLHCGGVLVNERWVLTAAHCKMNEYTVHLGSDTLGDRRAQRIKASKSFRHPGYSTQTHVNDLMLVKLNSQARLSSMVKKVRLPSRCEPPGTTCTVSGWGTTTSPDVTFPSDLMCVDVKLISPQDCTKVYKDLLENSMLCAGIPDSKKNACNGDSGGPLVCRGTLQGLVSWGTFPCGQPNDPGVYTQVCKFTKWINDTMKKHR

[13] = general cell-killing toxicity readout – plate reader, dry powder samples, cytotoxicity control for PAX8 inhibitor project, dose response (AID 743021); type: functional, cell-based
[14] = off-target signal loss in HeLa-CEM21 co-culture – HeLa F-luc CTL cells, cherry-picked, counter-screen for HIV-1 Env fusion inhibitor project, dose response (AID 652040); type: functional, cell-based;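 also: potency for signal decrease marking cytotoxic or nonspecific inhibition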
[15] = viability loss in CEM21 cells – cell-based, CellTiter-Glo luminescence, cherry-picked, cytotoxicity control for viral fusion inhibitor project, dose response (AID 652042); type: functional;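 also: potency for signal decrease meaning cytotoxicity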
[16] = blockers of HIV-1 envelope-mediated cell-cell fusion – cherry-pick, dose response (AID 652057); type: functional, cell-based
[17] = biological target: T2, Microphthalmia-associated transcription factor (Homo sapiens, UniProt O75030); assay: reducers of TRPM1 reporter luminescence, concentration series – cell-based, SK-MEL-5, cherry-picked, set 3, MITF inhibitor project, dose response (AID 493073); type: functional;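 also: SK-MEL-5 melanoma cells with luciferase driven by the MITF target TRPM1 promoter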
T2 sequence (O75030 whole entry): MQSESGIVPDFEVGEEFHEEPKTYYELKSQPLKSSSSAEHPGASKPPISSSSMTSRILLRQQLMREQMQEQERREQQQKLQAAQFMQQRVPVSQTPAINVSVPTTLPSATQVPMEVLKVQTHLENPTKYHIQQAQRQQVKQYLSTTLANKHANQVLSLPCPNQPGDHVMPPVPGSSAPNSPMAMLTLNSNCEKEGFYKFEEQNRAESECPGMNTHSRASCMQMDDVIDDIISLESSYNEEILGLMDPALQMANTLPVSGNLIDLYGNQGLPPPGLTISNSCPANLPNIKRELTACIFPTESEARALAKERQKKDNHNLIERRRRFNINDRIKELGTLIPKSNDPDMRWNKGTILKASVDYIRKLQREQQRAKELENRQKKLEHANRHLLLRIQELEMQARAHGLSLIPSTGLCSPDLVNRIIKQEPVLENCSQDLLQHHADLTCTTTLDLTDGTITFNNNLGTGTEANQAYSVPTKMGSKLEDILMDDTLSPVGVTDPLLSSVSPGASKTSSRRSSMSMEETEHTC

[18] = biological target: Paired box protein Pax-8 (Homo sapiens, UniProt Q06710); assay: PAX8 transcriptional activity inhibition in RMG-I – RMG-I cells, luciferase, cherry-pick, dose response (AID 687027); type: functional, cell-based;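 also: luciferase reporter driven by Pax8 target thyroperoxidase promoter measured by SteadyGlo luminescence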
Paired box protein Pax-8, sequence (Q06710 whole entry, the tested form may be a part): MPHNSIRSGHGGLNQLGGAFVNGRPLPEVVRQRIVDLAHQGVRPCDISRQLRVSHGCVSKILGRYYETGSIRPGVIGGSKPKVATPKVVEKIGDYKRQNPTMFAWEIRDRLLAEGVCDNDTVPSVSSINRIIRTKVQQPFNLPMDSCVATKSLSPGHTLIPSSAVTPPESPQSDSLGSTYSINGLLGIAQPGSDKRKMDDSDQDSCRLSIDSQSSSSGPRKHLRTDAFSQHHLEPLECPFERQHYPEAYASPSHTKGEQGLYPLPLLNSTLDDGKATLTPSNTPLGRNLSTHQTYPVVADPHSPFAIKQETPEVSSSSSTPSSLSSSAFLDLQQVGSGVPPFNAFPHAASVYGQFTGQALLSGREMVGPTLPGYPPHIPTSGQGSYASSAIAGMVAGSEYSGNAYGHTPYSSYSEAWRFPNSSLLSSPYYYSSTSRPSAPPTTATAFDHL

[19] = HIV-1 AD8 envelope cell-cell fusion blockers – cherry-pick, dose response (AID 652062); type: functional, cell-based;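 also: luciferase signal from cell-cell fusion driven by HIV-1 clade B AD8 Env; potency is for inhibitors of fusion seen as a drop in luminescence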
[20] = viability loss in HEK293T cells – cell-based, cherry-picks, cytotoxicity control for HIV Vif inhibitor project, dose response (AID 652208); type: functional
[21] = blockers of HIV-1 ZM109 envelope-driven cell-cell fusion – HeLa effector, CEM target cells, luciferase, cherry-pick, dose response (AID 652058); type: functional, cell-based;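 also: luciferase signal from HIV-1 Env mediated cell-cell fusion of effector and target cells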
[22] = Dd2 malaria parasite growth inhibition potency – SYBR Green, dry powder samples, dose response (AID 1159566); type: functional, cell-based;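 also: potency for growth inhibition with lower SYBR green DNA signal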
[23] = P. falciparum Dd2 growth inhibitors, dose response, SYBR Green, cherry-picked samples (AID 1159567); type: functional, cell-based
[24] = growth inhibition of PfATP4-mutant resistant parasites – NITD609-resistant line, SYBR Green, dry powder, dose response (AID 1159571); type: functional, cell-based;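 also: parasites synchronized at ring stage by sorbitol before testing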
[25] = growth inhibition of yeast DHODH-expressing 3D7 parasites – SYBR Green, dry powder samples, dose response (AID 1159570); type: functional, cell-based;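 also: parasite growth measured after 72 hours of compound exposure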
[26] = toxicity to human hepatoma HepG2 cells – cell-based, cherry-picked samples, cytotoxicity control, dose response (AID 1159577); type: functional
[27] = toxicity to human HepG2 hepatoma cells – cell-based, plate reader, dry powder samples, cytotoxicity control, dose response (AID 1159569); type: functional;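 also: inhibitor potency with signal falling toward the positive control level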
[28] = viability loss in LCL cells – cell-based, plate reader, dry powder, set 2, cytotoxicity control, dose response (AID 624367); type: functional
[29] = biological target: Scavenger receptor class B member 1 (Mus musculus, UniProt Q61009); assay: mouse SR-BI DiI-HDL transfer blockers – ldlA[mSR-BI] CHO cells, fluorescence plate reader, dry powder, set 9, dose response (AID 623880); type: functional, cell-based
[30] = cell viability loss, ATP luminescence – CellTiter-Glo, 24 h, powder samples, set 7, cytotoxicity control for SR-BI HDL uptake inhibitor project, dose response (AID 624026); type: functional, cell-based

## COc1ccc(CNC(=O)CN(Cc2ccc(Cl)cc2)S(=O)(=O)c2ccccc2)cc1
[1]
  IC50: > 69.5 µM (inactive)
[2]
  IC50: > 69.5 µM (inactive)

## COC(=O)c1sccc1NC(=O)c1ccc(C#N)cc1
[3]
  IC50: > 59.6 µM (inactive)
[4]
  IC50: > 59.6 µM (inactive)

## O=C(COC(=O)c1ccc2c(c1)C(=O)N(c1cccc3ncccc13)C2=O)c1ccc(Cl)cc1
[5]
  IC50: 1.97 µM (active)

## O=C1CCC(C(=O)Nc2cccc(C(F)(F)F)c2)N1 (stereo not given)
[6]
  AC50: > 52 µM (inactive)

## Cc1ccc(Cn2ccc(NC(=O)c3cc4nc(-c5ccco5)cc(C(F)(F)F)n4n3)n2)cc1
[7]
  EC50: 220 nM (active)
[8]
  AC50: 14.1 µM (inconclusive)
[9]
  AC50: 2.82 µM (inconclusive)
[10]
  EC50: 6.43 nM (active)

## CNc1cc(C)c(C#N)c2nc3ccccc3n12
[11]
  EC50: > 2.58 µM (active)
[12]
  EC50: 3.77 µM (active)

## OCC1OC(n2cnc3c(NCc4ccco4)ncnc32)C(O)C1O (stereo not given)
[13]
  AC50: 1.38 µM (active)
[14]
  AC50: 36.8 µM (active)
[15]
  AC50: 2.94 µM (active)
[16]
  AC50: 7.32 µM (active)
[17]
  AC50: 3.88 µM (active)
[18]
  AC50: 2.41 µM (active)
[19]
  AC50: 6.9 µM (active)
[20]
  AC50: 13.8 µM (active)
[21]
  AC50: 6.03 µM (active)

## N#C[C@H]1[C@H](c2ccc(C#Cc3ccccc3F)cc2)[C@H](CO)N1C(=O)c1cccnc1
[22]
  AC50: 1.59 µM (active)
[23]
  AC50: 1.58 µM (active)
[24]
  AC50: 1.54 µM (active)
[25]
  AC50: 1.83 µM (active)
[26]
  AC50: > 39 µM (inactive)
[27]
  AC50: > 100 µM (inactive)
[28]
  AbsAC35: 50.14 µM

## C[C@@H]1CN([C@H](C)CO)C(=O)c2cc(NC(=O)Nc3ccc(F)cc3)ccc2O[C@H]1CN(C)S(=O)(=O)c1ccc(Cl)cc1
[29]
  AC50: 113 nM (active)
[30]
  AC50: > 70 µM (inactive)
